In the NIST ThermoML archive (doi:10.1016/j.fluid.2007.07.016):
± gives the expanded uncertainty stated by the source.

Experiment: xn = mol fraction of the nth substance listed
Conditions: 101 kPa, Liquid; for viscosity: Capillary tube (Ostwald / Ubbelohde) method; for speed of sound: Linear variable-path acoustic interferometer

C1CCOC1 [tetrahydrofuran] + Cc1ccccc1
Conditions | speed of sound, 288.15 K [m/s] | speed of sound, 298.15 K [m/s] | speed of sound, 308.15 K [m/s] | speed of sound, 318.15 K [m/s] | viscosity, 288.15 K [mPa·s] | viscosity, 298.15 K [mPa·s] | viscosity, 308.15 K [mPa·s] | viscosity, 318.15 K [mPa·s]
x1 = 0.0718 | 1357.7 ± 1.6 | 1309.4 ± 1.6 | 1264.6 ± 1.5 | 1219.3 ± 1.5 | 0.6406 ± 0.0046 | 0.5513 ± 0.004 | 0.5013 ± 0.0037 | 0.4399 ± 0.0035
x1 = 0.1498 | 1356.3 ± 1.6 | 1307.9 ± 1.6 | 1262.7 ± 1.5 | 1217.3 ± 1.5 | 0.635 ± 0.0046 | 0.5491 ± 0.004 | 0.5003 ± 0.0037 | 0.4415 ± 0.0035
x1 = 0.2283 | 1354.6 ± 1.6 | 1306.2 ± 1.6 | 1260.7 ± 1.5 | 1215.2 ± 1.5 | 0.6285 ± 0.0046 | 0.5459 ± 0.004 | 0.498 ± 0.0037 | 0.4421 ± 0.0034
x1 = 0.2902 | 1353.1 ± 1.6 | 1304.8 ± 1.6 | 1259.1 ± 1.5 | 1213.5 ± 1.5 | 0.6231 ± 0.0045 | 0.5431 ± 0.004 | 0.4956 ± 0.0037 | 0.4418 ± 0.0034
x1 = 0.3452 | 1351.7 ± 1.6 | 1303.4 ± 1.6 | 1257.6 ± 1.5 | 1212 ± 1.5 | 0.6176 ± 0.0045 | 0.5398 ± 0.004 | 0.4929 ± 0.0036 | 0.4408 ± 0.0034
x1 = 0.4005 | 1350.1 ± 1.6 | 1302 ± 1.6 | 1255.9 ± 1.5 | 1210.4 ± 1.5 | 0.6113 ± 0.0044 | 0.5357 ± 0.0039 | 0.4894 ± 0.0036 | 0.4388 ± 0.0034
x1 = 0.4694 | 1347.8 ± 1.6 | 1299.9 ± 1.6 | 1253.7 ± 1.6 | 1208.2 ± 1.5 | 0.6027 ± 0.0044 | 0.5298 ± 0.0039 | 0.484 ± 0.0036 | 0.4352 ± 0.0034
x1 = 0.5368 | 1345.4 ± 1.6 | 1297.7 ± 1.6 | 1251.4 ± 1.6 | 1205.9 ± 1.5 | 0.5934 ± 0.0043 | 0.523 ± 0.0039 | 0.4775 ± 0.0036 | 0.4307 ± 0.0034
x1 = 0.6067 | 1342.8 ± 1.6 | 1295.2 ± 1.6 | 1248.8 ± 1.6 | 1203.4 ± 1.5 | 0.5834 ± 0.0043 | 0.5155 ± 0.0038 | 0.4704 ± 0.0035 | 0.4253 ± 0.0033
x1 = 0.6704 | 1340.1 ± 1.6 | 1292.8 ± 1.6 | 1246.3 ± 1.6 | 1200.9 ± 1.5 | 0.5736 ± 0.0042 | 0.508 ± 0.0038 | 0.463 ± 0.0035 | 0.4196 ± 0.0033
x1 = 0.7378 | 1337 ± 1.6 | 1289.9 ± 1.6 | 1243.5 ± 1.6 | 1198.3 ± 1.5 | 0.5626 ± 0.0041 | 0.4993 ± 0.0037 | 0.4544 ± 0.0035 | 0.4125 ± 0.0033
x1 = 0.8018 | 1333.8 ± 1.6 | 1287 ± 1.6 | 1240.7 ± 1.6 | 1195.7 ± 1.5 | 0.5515 ± 0.0041 | 0.4903 ± 0.0037 | 0.4453 ± 0.0034 | 0.405 ± 0.0032
x1 = 0.8714 | 1330.2 ± 1.6 | 1284 ± 1.6 | 1237.6 ± 1.6 | 1192.8 ± 1.5 | 0.5387 ± 0.004 | 0.4797 ± 0.0036 | 0.4346 ± 0.0034 | 0.3957 ± 0.0032
x1 = 0.9368 | 1326.6 ± 1.6 | 1280.7 ± 1.6 | 1234.5 ± 1.6 | 1190 ± 1.5 | 0.5259 ± 0.0039 | 0.469 ± 0.0036 | 0.4237 ± 0.0033 | 0.3861 ± 0.0032
x1 = 1 | 1323.1 ± 1.6 | 1277.6 ± 1.6 | 1231.5 ± 1.6 | 1187.2 ± 1.5 | 0.5129 ± 0.0039 | 0.458 ± 0.0036 | 0.4125 ± 0.0033 | 0.3762 ± 0.0031
